Measured values as given in patent publication US5773458A, “1-azabicycloheptane derivatives” (American Home Products Corporation, priority 1997, dated 1998).

Target: T1, M1 acetylcholine receptors (Homo sapiens, UniProt P11229)
T1 construct: expressed in transfected cells; host or cells: Chinese Hamster Ovary (CHO) cells, CMV vector
T1 sequence (P11229 1-460): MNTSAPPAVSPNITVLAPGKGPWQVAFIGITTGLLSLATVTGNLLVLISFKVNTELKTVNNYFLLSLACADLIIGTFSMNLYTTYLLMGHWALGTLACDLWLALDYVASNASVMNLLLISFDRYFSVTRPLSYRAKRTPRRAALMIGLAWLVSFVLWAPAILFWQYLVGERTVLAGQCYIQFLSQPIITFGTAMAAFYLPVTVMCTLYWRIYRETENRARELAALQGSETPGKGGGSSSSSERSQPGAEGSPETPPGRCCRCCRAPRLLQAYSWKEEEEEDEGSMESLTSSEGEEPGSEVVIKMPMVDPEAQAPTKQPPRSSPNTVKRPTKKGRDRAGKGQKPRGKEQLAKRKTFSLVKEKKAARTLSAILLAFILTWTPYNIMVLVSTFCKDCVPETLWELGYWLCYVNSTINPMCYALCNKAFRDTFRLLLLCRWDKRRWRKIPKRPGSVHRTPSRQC
Assay: Phosphoinositide (PI) hydrolysis in transfected CHO cells
Format: cell-based
Conditions: statement in words, no figures given
Procedure: The tubes are incubated for one hour at 37° C. The reaction is quenched with chloroform and the phosphatidyl inositols are extracted with methanol and chloroform. Phase separation is assured with the addition of methanol and water followed by centrifugation. The tritiated inositol phosphates are recovered on BioRad AG 1-X8 anion exchange resin in the formate cycle. After washing the resin with water and myo-inositol, the inositol phosphates are eluted with ammonium formate/formic acid, collected and subjected to liquid scintillation spectroscopy.

functional m1 muscarinic agonism: enhanced muscarinic agonism
SMILES: CNC(=O)O[C@@H]1C[N+]2([O-])CC[C@@H]1C2 (relative stereo) [Example 1, (exo)--Methylcarbamic acid 1-oxy-1-aza-bicyclo[2.2.1]hept-3-yl ester]
